Assay results: patent publication US8173689B2 (Novartis AG, priority 2006, dated 2012)
Like-named read-outs stand apart in the source and are kept apart here.

Columns and labels:
[1] = target: T1, cytoplasmic domain of the human CSF-1R (Homo sapiens, UniProt P07333); experiment: In vitro kinase assay for colony stimulating factor-1 receptor (AlphaScreen); format: biochemical; settings: tested at about 1 μM, read-out: CSF-1R percent inhibition
T1 construct: Recombinant protein corresponding to the cytoplasmic domain of the human CSF-1R; purchased Invitrogen Corporation, Carlsbad, Calif; PV3249
T1 sequence (P07333 539-972 limits assumed): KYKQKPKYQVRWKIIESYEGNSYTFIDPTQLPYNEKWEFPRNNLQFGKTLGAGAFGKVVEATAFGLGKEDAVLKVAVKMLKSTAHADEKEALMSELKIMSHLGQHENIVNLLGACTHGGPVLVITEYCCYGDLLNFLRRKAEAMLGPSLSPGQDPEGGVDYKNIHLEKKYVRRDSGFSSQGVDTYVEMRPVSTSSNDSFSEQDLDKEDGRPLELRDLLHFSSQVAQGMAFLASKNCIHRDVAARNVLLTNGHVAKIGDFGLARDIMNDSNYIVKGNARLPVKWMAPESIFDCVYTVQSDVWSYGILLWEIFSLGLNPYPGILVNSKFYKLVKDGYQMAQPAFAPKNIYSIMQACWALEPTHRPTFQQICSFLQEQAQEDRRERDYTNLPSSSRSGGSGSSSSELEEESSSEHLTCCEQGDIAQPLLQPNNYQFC
Protocol: The kinase activity of various protein tyrosine kinases can be measured by providing ATP and a suitable peptide or protein tyrosine-containing substrate, and assaying the transfer of phosphate moiety to the tyrosine residue. Recombinant protein corresponding to the cytoplasmic domain of the human CSF-1R was purchased from Invitrogen Corporation, Carlsbad, Calif. U.S.A. (#PV3249). For each assay, test compounds were serially diluted, starting at 25 μM with 3 fold dilutions, in DMSO in 384 well plates then mixed with an appropriate kinase reaction buffer consisting of 50 mM Hepes, 5 mM MgCl2, 10 mM MnCl2, 0.1% BSA, pH 7.5, 1.0 mM dithiothreitol, 0.01% Tween 80 plus 1 μM ATP. […] Added to the stopped reaction mix was 30 μL of PT66 Alphascreen beads (Perkin Elmer, Boston, Mass., U.S.A.). The reaction was incubated overnight and read on the Envision (Perkin Elmer). Phosphorylated peptide product was measured with the AlphaScreen system (Perkin Elmer) using acceptor beads coated with anti-phosphotyrosine antibody PT66 and donor beads coated with streptavidin that emit a fluorescent signal at the 520-620 nm emission wave length if in close proximity.
CSF-1R kinase was added at final concentration of 4 nM.

kinase domain of cKIT = target: T2, kinase domain of cKIT (Homo sapiens, UniProt P10721); experiment: Inhibition of cKIT kinase signaling in an in vitro biochemical assay (alphascreen); settings: tested at about 1 μM, read-out: cKit percent inhibition
T2 construct: The kinase domain of cKIT was assayed in 50 mM Hepes; purchased Upstate 14-559
T2 sequence (P10721 589-937 limits assumed): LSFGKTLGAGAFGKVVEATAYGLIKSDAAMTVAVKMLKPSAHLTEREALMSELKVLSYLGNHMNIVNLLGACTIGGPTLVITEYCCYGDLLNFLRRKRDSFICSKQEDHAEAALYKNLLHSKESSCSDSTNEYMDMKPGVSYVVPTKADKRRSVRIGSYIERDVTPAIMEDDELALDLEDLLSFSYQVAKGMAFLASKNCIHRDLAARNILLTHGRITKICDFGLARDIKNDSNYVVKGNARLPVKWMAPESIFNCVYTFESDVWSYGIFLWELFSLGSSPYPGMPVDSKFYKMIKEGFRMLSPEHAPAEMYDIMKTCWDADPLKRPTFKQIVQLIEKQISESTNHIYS
Protocol: (§1) The IC50 values for the inhibition of RTKs were determined in the alphascreen format measuring the inhibition by compound of phosphate transfer to a substrate by the respective enzyme. Briefly, the respective RTK domain purchased as human recombinant protein (cKIT Upstate #14-559, PDGFRb Invitrogen #P3082) were incubated with serial dilutions of compound in the presence of substrate and ATP concentrations within 3 times the Km of the enzyme.
(§2) Alphascreen PY20 beads were added to the stopped cKIT reactions and PY20 Ab/Protein A Alphascreen beads were added to the PDGFRβ stopped reactions. Both reactions were incubated overnight and read on the Alphascreen reader.

kinase domain of PDGFRβ = target: T3, kinase domain of PDGFRβ (Homo sapiens, UniProt P09619); experiment: Inhibition of PDGFRb kinase signaling in an in vitro biochemical assay (alphascreen); settings: tested at about 1 μM, read-out: PDGFRβ percent inhibition
T3 construct: The kinase domain of PDGFRβ was assayed in 50 mM Hepes; purchased Invitrogen P3082
T3 sequence (P09619 600-962 limits assumed): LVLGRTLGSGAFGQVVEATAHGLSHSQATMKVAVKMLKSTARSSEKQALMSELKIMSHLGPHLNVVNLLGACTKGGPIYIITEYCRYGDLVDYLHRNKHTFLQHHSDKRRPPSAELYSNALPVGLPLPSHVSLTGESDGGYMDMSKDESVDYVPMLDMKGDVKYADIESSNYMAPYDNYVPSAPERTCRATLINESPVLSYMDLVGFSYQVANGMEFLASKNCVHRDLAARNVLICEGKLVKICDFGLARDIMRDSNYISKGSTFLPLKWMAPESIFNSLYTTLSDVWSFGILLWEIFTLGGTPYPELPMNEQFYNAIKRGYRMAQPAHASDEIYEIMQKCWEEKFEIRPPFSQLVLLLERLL
Protocol: as §1, §2

Row | SMILES | inhibition at 1 µM [1] [%] | inhibition at 1 µM (kinase domain of cKIT) [%] | inhibition at 1 µM (kinase domain of PDGFRβ) [%] | inhibition at 1 µM ([1]; compounds of Table 3) [%] | inhibition at 1 µM (kinase domain of cKIT; compounds of Table 3) [%] | inhibition at 1 µM (kinase domain of PDGFRβ; compounds of Table 3) [%]
1 | OCc1cc(Oc2ccc3nc(NCC4CCCCC4)oc3c2)ccn1 [Compound 80, {4-[2-(Cyclohexylmethyl-amino)-benzooxazol-6-yloxy]-pyridin-2-yl}-methanol] | 87 | 7 | 0 | – | – | –
2 | CC(=O)N[C@H]1CCN(c2cc(Oc3ccc4nc(N[C@@H]5CCCC[C@H]5O)sc4c3)ccn2)C1 [Cmpd 178, N-((S)-1-(4-(2-((1R,2R)-2-hydroxycyclohexylamino)benzo[d]thiazol-6-yloxy)pyridin-2-yl)pyrrolidin-3-yl)acetamide] | – | – | – | 82 | 17 | -3
3 | CN(C)C(=O)c1cc(Oc2ccc3nc(N[C@@H]4CCCC[C@H]4O)sc3c2)ccn1 [Compound 10] | – | – | – | 67 | 0 | 9
4 | CNC(=O)c1cc(Oc2ccc3nc(N[C@H](CO)c4ccccc4)oc3c2)ccn1 [Compound 56, 4-[2-((S)-2-Hydroxy-1-phenyl-ethylamino)-benzooxazol-6-yloxy]-pyridine-2-carboxylic acid methylamide] | 66 | 55 | 0 | – | – | –
5 | CNC(=O)c1cc(Oc2ccc3nc(NC(C)C)oc3c2)ccn1 [Compound 98, 4-(2-Isopropylamino-benzo-oxazol-6-yloxy)-pyridine-2-carboxylic acid methylamide] | 26 | 7 | 0 | – | – | –
6 | O=C(O)c1cc(Oc2ccc3nc(NCC4CCCCC4)oc3c2)ccn1 [Compound 60, 4-[2-(Cyclohexylmethyl-amino)-benzooxazol-6-yloxy]-pyridine-2-carboxylic acid] | 92 | 6 | 2 | – | – | –
7 | CNC(=O)c1cc(Oc2ccc3nc(Nc4ccc5c(c4)OCO5)oc3c2)ccn1 [Compound 95, 4-[2-(Benzo[1,3]dioxol-5-yl-amino)-benzooxazol-6-yloxy]-pyridine-2-carboxylic acid methylamide] | 98 | 40 | 8 | – | – | –
8 | CNC(=O)c1cc(Oc2ccc3nc(N[C@@H](C(=O)OC)c4ccccc4)oc3c2)ccn1 [Compound 53, (R)-[6-(2-Methylcarbamoyl-pyridin-4-yloxy)-benzooxazol-2-ylamino]-phenyl-acetic acid methyl ester] | 95 | 21 | 0 | – | – | –
9 | CC(=O)N[C@@H]1CCN(c2cc(Oc3ccc4nc(N[C@@H]5CCCC[C@H]5O)sc4c3)ccn2)C1 [Cmpd 177, N-((R)-1-(4-(2-((1R,2R)-2-hydroxycyclohexylamino)benzo[d]thiazol-6-yloxy)pyridin-2-yl)pyrrolidin-3-yl)acetamide] | – | – | – | 67 | 15 | 0
10 | CNC(=O)c1cc(Oc2ccc3nc(NCc4c(F)cccc4Cl)oc3c2)ccn1 [Compound 78, 4-[2-(2-Chloro-6-fluoro-benzylamino)-benzooxazol-6-yloxy]-pyridine-2-carboxylic acid methylamide] | 87 | 9 | 0 | – | – | –
11 | CNC(=O)c1cc(Oc2ccc3nc(N[C@H](CCO)c4ccccc4)oc3c2)ccn1 [Compound 51, 4-[2-((R)-3-Hydroxy-1-phenyl-propylamino)-benzooxazol-6-yloxy]-pyridine-2-carboxylic acid methylamide] | 95 | 40 | 2 | – | – | –

Second part, the compound after the results:

Row | inhibition at 1 µM [1] [%] | inhibition at 1 µM (kinase domain of cKIT) [%] | inhibition at 1 µM (kinase domain of PDGFRβ) [%] | inhibition at 1 µM ([1]; compounds of Table 3) [%] | inhibition at 1 µM (kinase domain of cKIT; compounds of Table 3) [%] | inhibition at 1 µM (kinase domain of PDGFRβ; compounds of Table 3) [%] | SMILES
12 | 68 | 20 | 0 | – | – | – | CNC(=O)c1cc(Oc2ccc3nc(N[C@@H]4CCCN(C(C)=O)C4)sc3c2)ccn1 [Example 302, (R)-4-(2-(1-acetylpiperidin-3-ylamino)benzo[d]thiazol-6-yloxy)-N-methylpicolinamide]
13 | 83 | 14 | 0 | – | – | – | CNC(=O)c1cc(Oc2ccc3nc(NCC4CCCO4)oc3c2)ccn1 (stereo not drawn) [Compound 102, 4-{2-[(Tetrahydro-furan-2-ylmethyl)-amino]-benzooxazol-6-yloxy}-pyridine-2-carboxylic acid methylamide]
14 | 48 | 38 | 10 | – | – | – | CNC(=O)c1cc(Oc2ccc3nc(N[C@H]4CCCNC4)sc3c2)ccn1 [Example 332, (S)-N-methyl-4-(2-(piperidin-3-ylamino)benzo[d]thiazol-6-yloxy)picolinamide]
15 | 74 | 6 | 13 | – | – | – | CNC(=O)c1cc(Oc2ccc3nc(N[C@H]4CCCC[C@H]4NC(=O)[C@H]4CCCO4)sc3c2)ccn1 [Example 309, N-methyl-4-(2-((1S,2R)-2-((R)-tetrahydrofuran-2-carboxamido)cyclohexylamino)benzo[d]thiazol-6-yloxy)picolinamide]
16 | 52 | 23 | 2 | – | – | – | CNC(=O)c1cc(Oc2ccc3nc(N[C@H]4CCCC[C@H]4NC(=O)[C@@H]4CCCN4C)sc3c2)ccn1 [Example 313, N-methyl-4-(2-((1S,2R)-2-((S)-1-methylpyrrolidine-2-carboxamido)cyclohexylamino)benzo[d]thiazol-6-yloxy)picolinamide]
17 | 63 | 12 | 9 | – | – | – | CNC(=O)c1cc(Oc2ccc3nc(NCC(C)C)oc3c2)ccn1 [Compound 99, 4-(2-Isobutylamino-benzooxazol-6-yloxy)-pyridine-2-carboxylic acid methylamide]
18 | – | – | – | 97 | 1 | 9 | CNC(=O)c1cc(Oc2ccc3nc(NC4CCCC(NC(C)=O)C4)sc3c2)ccn1 (stereo not drawn) [Example 296, 4-(2-(3-acetamidocyclohexylamino)benzo[d]thiazol-6-yloxy)-N-methylpicolinamide]
19 | 68 | 83 | 99 | – | – | – | CNC(=O)c1cc(Oc2ccc3nc(Nc4ccc(Cl)c(C(F)(F)F)c4)sc3c2)ccn1 [Compound 126, 4-[2-(4-Chloro-3-trifluoromethyl-phenylamino)-benzothiazol-6-yloxy]-pyridine-2-carboxylic acid methylamide]
20 | – | – | – | 75 | 21 | 11 | CNC(=O)c1cc(Oc2ccc3nc(N[C@H]4CC[C@@H](NC(=O)c5ccccc5)CC4)sc3c2)ccn1 [Compound 135]
21 | 99 | 2 | 0 | – | – | – | CNC(=O)c1cc(Oc2ccc3nc(N(C)Cc4ccccc4)oc3c2)ccn1 [Compound 106, 4-[2-(Benzyl-methyl-amino)-benzooxazol-6-yloxy]-pyridine-2-carboxylic acid methylamide]
22 | – | – | – | 62 | 1 | 0 | CNC(=O)c1cc(Oc2ccc3nc(NC(C)C(O)c4cc(OC)ccc4OC)sc3c2)ccn1 (stereo not drawn) [Compound 123]
23 | – | – | – | 85 | 5 | 0 | CNC(=O)c1cc(Oc2ccc3nc(N[C@H]4CCCC[C@H]4NC(C)=O)sc3c2)ccn1 [Example 295, 4-(2-((1S,2R)-2-acetamidocyclohexylamino)benzo[d]thiazol-6-yloxy)-N-methylpicolinamide]
24 | 86 | 21 | 6 | – | – | – | CNC(=O)c1cc(Oc2ccc3nc(N[C@H]4CCCN(C(=O)NC(C)C)C4)sc3c2)ccn1 [Example 333, (S)-4-(2-(1-(isopropylcarbamoyl)piper-idin-3-ylamino)benzo[d]thiazol-6-yloxy)-N-methylpicolinamide]
